# According to patent publication US12383531B2, “PLA2 inhibitors for treatment of pathological conditions caused by hymenoptera envenomation, such as hemolysis, cerebral edema, and acute kidney injury” (Ophirex, Inc., priority 2016, dated 2025):
# “Also recorded” adds a separate entry of the source.
# How the values were obtained:
# C. atrox venom MP = C. atrox venom MP inhibition; assay type: biochemical; conditions: 10 μM
# E. carinatus venom MP = E. carinatus venom MP inhibition; assay type: biochemical; conditions: 10 μM
# M. fulvius venom sPLA2 = M. fulvius venom sPLA2 inhibition; assay type: biochemical; conditions: 10 μM
# [1] = test system: Snake venom metalloprotease, C. atrox and E. carinatus; experiment: Snake venom metalloprotease inhibition for C. atrox and E. carinatus; assay type: biochemical; conditions: 10 μM; range over both venoms
# [2] = test system: A. contortrix venom sPLA2; experiment: sPLA2 chromogenic inhibition assay, A. contortrix venom; assay type: biochemical; conditions: chromogenic sPLA2 assay after 60 of incubation, read-out: IC50 for each venom inhibitor
# V. berus venom sPLA2 = experiment: sPLA2 chromogenic inhibition assay, V. berus venom; assay type: biochemical; conditions: chromogenic sPLA2 assay after 60 of incubation, read-out: IC50 for each venom inhibitor
# [3] = test system: C. terrificus venom sPLA2; experiment: sPLA2 chromogenic inhibition assay, C. terrificus venom; assay type: biochemical; conditions: chromogenic sPLA2 assay after 60 of incubation, read-out: IC50 for each venom inhibitor
# bee venom sPLA2 [4] = target: T1, bee venom sPLA2 (Apis mellifera, UniProt P00630); experiment: biochemical; assay type: biochemical
# T1 sequence (P00630 34-167 limits assumed): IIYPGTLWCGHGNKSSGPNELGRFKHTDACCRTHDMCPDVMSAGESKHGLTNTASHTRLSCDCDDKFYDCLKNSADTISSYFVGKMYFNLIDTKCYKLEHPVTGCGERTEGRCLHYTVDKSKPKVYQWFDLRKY
# [5] = test system: venous human blood incubated with Boomslang (Dispholidus typus) venom; experiment: Hemolysis of ex vivo human blood treated with Boomslang venom (FIG. 5B); assay type: cell-based; conditions: Compound 4 1 uM with or without soluble simvastatin 1 uM, 90 minutes
# [6] = test system: histamine production or release in human blood; experiment: Plasma histamine in human blood; assay type: cell-based; conditions: human blood from a donor prone to LRR; 10 uM
# Procedure: In this example, 3 cc human blood from a donor prone to LRR was collected and shipped to Quest on ice pursuant to Quest collection protocol 36586 and incubated with (a) Mannitol+Compound 4 (10 uM), (b) Varespladib (10 uM), or (c) Mannitol alone (excipient). Samples were processed for plasma histamine levels, compared with the Mannitol-only control.
# [7] = test system: boomslang venom or bee venom; experiment: Venom-induced acute kidney injury in mice, boomslang venom or bee venom (FIG. 7); assay type: in vivo, mouse; conditions: sublethal envenomation; single dose at same time as venom; 24 hours
# C. atrox venom sPLA2 = experiment: sPLA2 chromogenic inhibition assay, C. atrox venom; assay type: biochemical; conditions: chromogenic sPLA2 assay after 60 of incubation, read-out: IC50 for each venom inhibitor
# [8] = test system: C. adamanteus venom sPLA2; experiment: sPLA2 chromogenic inhibition assay, C. adamanteus venom; assay type: biochemical; conditions: chromogenic sPLA2 assay after 60 of incubation, read-out: IC50 for each venom inhibitor
# V. russelli venom sPLA2 = experiment: sPLA2 chromogenic inhibition assay, V. russelli venom; assay type: biochemical; conditions: chromogenic sPLA2 assay after 60 of incubation, read-out: IC50 for each venom inhibitor
# bee venom = experiment: Survival of mice envenomated with bee venom; assay type: in vivo, CD-1 mice; conditions: 5 mice; bee venom 5 mg/kg IV; 25 mg/kg varespladib SQ immediately after envenomation
# [9] = test system: venous human blood incubated with M. Fulvius venom; experiment: Hemolysis of ex vivo whole human blood treated with M. Fulvius venom (FIG. 5A); assay type: cell-based; conditions: inhibitor 1 uM with or without soluble simvastatin 1 uM, 90 minutes
# [10] = test system: whole bee (Apis mellifera) venom; experiment: Acute kidney injury in mice after whole bee venom (FIG. 8); assay type: in vivo, mouse; conditions: single dose Varespladib (LY315920) with bee venom, then oral methylvarespladib (LY333013) ad libitum in diet; kidneys examined 36 hours
# bee venom sPLA2 [11] = target: T1, bee venom sPLA2; conditions: cited from earlier work
SMILES,C. atrox venom MP inhibition % effect (C. atrox venom MP) [%],E. carinatus venom MP inhibition % effect (E. carinatus venom MP) [%],M. fulvius venom sPLA2 inhibition % effect (M. fulvius venom sPLA2) [%],Snake venom metalloprotease inhibition for C. atrox and E. carinatus [1] [%],IC50 [2] [nM],IC50 (V. berus venom sPLA2) [nM],inhibitory activity in vitro against bee venom sPLA2 (bee venom sPLA2 [4]),also measured
"CC[C@H](C)C(=O)O[C@H]1CCC=C2C=C[C@H](C)[C@H](CC[C@@H]3C[C@@H](O)CC(=O)O3)[C@H]21 [MEVASTATIN, Mevastatin]",7.17,−1.89 to 3.82,16.29,−1.89 to 7.17,,,,
"CC[C@H](C)C(=O)O[C@H]1C[C@H](O)C=C2C=C[C@H](C)[C@H](CC[C@@H](O)C[C@@H](O)CC(=O)O)[C@H]21 [PRAVASTATIN, Pravastatin]",2.27,4.02,6.9,2.27 to 4.02,,,,
"NC(=O)c1ccc(Cc2ccccc2)cc1-c1cccc(CCC(=O)O)c1 [Compound 4, 3-(5′-Benzyl-2′-carbamoylbiphenyl-3-yl) propanoic acid]",,,,,88,170,very weak inhibitory activity; also recorded: virtually no effect,IC50 [3]: 670 nM; IC50 (bee venom sPLA2 [4]): > 70000 nM; anti-hemolytic activity [5]: anti-hemolytic activity; Plasma Histamine [6]: 10.1 ng/mL; signs of acute kidney injury (gross kidney appearance) [7]: comparably minimal signs of acute kidney injury
"O=C(O)C[C@H](O)C[C@H](O)/C=C/c1c(C2CC2)nc2ccccc2c1-c1ccc(F)cc1 [ITAVASTATIN, Pitavastatin]",5.09,0.48,,0.48 to 5.09,,,,
"CCc1c(C(=O)C(N)=O)c2c(OCC(=O)O)cccc2n1Cc1ccccc1 [Varespladib, ((3-(2-Amino-1,2-dioxoethyl)-2-ethyl-1-(phenylmethyl)-1H-indol-4-yl)oxy)acetic acid]",,,,,0.9,0.8,very weak inhibitory activity; also recorded: not potent inhibitors,"IC50 (C. atrox venom sPLA2): 0.7 nM; IC50 [8]: 0.8 nM; IC50 (V. russelli venom sPLA2): 0.4 nM; IC50 [3]: 21 nM; IC50 (bee venom sPLA2 [4]): 12000 to 18000 nM; higher IC50 against bee venom PLA2 as compared to snake venom PLA2 (bee venom sPLA2 [4]): 5-45,000 fold; survival compared to controls (bee venom): uniformly prolonged survival; anti-hemolytic activity (Hgb absorption spectra) [9]: remained unchanged with the addition of statin; Plasma Histamine [6]: 5.1 ng/mL; signs of acute kidney injury (gross kidney appearance) [7]: minimal signs of acute kidney injury; protection from AKI (pigment nephropathy, hyperemia) [10]: excellent protection from AKI; performance in vitro against bee venom sPLA2 in earlier studies (bee venom sPLA2 [11]): performed extremely poorly"
"CCC(C)(C)C(=O)O[C@H]1C[C@@H](C)C=C2C=C[C@H](C)[C@H](CC[C@@H]3C[C@@H](O)CC(=O)O3)[C@H]21 [SIMVASTATIN, Simvastatin]",4.03,−0.20 to 4.61,16.41,−0.20 to 4.61,,,,
"CC[C@H](C)C(=O)O[C@H]1C[C@@H](C)C=C2C=C[C@H](C)[C@H](CC[C@@H]3C[C@@H](O)CC(=O)O3)[C@H]21 [LOVASTATIN, Lovastatin]",,−1.89,11.09,,,,,
CCc1c(C(=O)C(N)=O)c2c(OCC(=O)OC)cccc2n1Cc1ccccc1 [Me-Varespladib],,,,,430,170,very weak inhibitory activity; also recorded: not potent inhibitors,IC50 (C. atrox venom sPLA2): 200 nM; IC50 [8]: 360 nM; IC50 (V. russelli venom sPLA2): 80 nM; performance in vitro against bee venom sPLA2 in earlier studies (bee venom sPLA2 [11]): performed extremely poorly
